Source: US20240270701A1, “BETA ADRENERGIC AGONIST AND METHODS OF USING THE SAME” (Curasen Therapeutics, Inc., priority 2021, published 2024)
Like-named read-outs stand apart in the source and are kept apart here.

What was measured:
B1-AR = molecular target: T1, B1-AR (Homo sapiens, UniProt P08588); test: cAMP Gs dynamic HTRF assay, cells expressing beta-adrenergic receptor (CHO-K1), B1-AR; assay type: cell-based; conditions: for EC50: cAMP HTRF, read-out: pEC50 [B1-AR] (converted); for Emax: relative to full agonist isoproterenol, read-out: Emax (% iso) (%) [B1-AR]
T1 construct: expressed in transfected cells; host or cells: CHO-K1
T1 sequence (P08588 whole entry, species assumed): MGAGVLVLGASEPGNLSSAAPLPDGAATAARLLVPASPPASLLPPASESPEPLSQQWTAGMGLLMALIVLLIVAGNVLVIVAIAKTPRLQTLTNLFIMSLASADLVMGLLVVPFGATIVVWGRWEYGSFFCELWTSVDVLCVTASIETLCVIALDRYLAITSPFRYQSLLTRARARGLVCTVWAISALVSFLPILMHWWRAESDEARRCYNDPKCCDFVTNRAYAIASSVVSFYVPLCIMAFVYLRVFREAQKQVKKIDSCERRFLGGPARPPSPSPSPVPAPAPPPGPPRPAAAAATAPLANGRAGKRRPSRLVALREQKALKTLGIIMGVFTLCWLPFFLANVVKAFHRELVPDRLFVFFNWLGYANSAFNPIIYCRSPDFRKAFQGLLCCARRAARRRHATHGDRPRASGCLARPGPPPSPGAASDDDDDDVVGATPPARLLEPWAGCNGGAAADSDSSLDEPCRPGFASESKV

B2-AR = molecular target: T2, B2-AR (Homo sapiens, UniProt P07550); test: cAMP Gs dynamic HTRF assay, cells expressing beta-adrenergic receptor (CHO-K1), B2-AR; assay type: cell-based; conditions: for Emax: relative to full agonist isoproterenol, read-out: Emax (% iso) (%) [B2-AR]; for EC50: cAMP HTRF, read-out: pEC50 [B2-AR] (converted)
T2 construct: expressed in transfected cells; host or cells: CHO-K1
T2 sequence (P07550 whole entry, species assumed): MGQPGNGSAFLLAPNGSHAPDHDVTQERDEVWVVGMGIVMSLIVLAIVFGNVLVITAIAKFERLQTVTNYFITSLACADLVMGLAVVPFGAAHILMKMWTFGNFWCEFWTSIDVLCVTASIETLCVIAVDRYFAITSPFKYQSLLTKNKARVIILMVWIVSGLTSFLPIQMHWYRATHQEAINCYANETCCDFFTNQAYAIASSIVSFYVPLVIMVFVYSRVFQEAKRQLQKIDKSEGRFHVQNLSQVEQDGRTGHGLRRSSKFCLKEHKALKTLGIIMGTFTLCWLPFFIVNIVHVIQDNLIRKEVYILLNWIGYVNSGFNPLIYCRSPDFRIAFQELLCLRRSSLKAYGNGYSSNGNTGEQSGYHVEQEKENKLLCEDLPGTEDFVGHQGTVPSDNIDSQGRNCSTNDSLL

Row | Emax (B2-AR; CHO-K1 cells) [%] | SMILES | EC50 (B1-AR) [nM] | Emax (B1-AR) [%] | Emax (B2-AR; CHO-K1, CHO-K1 cells) [%] | EC50 (B2-AR; CHO-K1 cells) [nM]
1 | – | COc1cc([C@@H](O)CNC(C)(C)C)c2cn[nH]c2c1F [I-59] | 100 to 1000 | < 50 | < 50 | 10 to 100
2 | 50 to 70 | Cc1ncccc1[C@@H](O)CNC1CC(F)(F)C1 [I-181] | > 1000 | < 50 | – | > 1000
3 | – | O[C@@H](CNC1CC1)c1cccc2[nH]cc(F)c12 [I-108] | 10 to 100 | > 90 | > 90 | 10 to 100
4 | > 90 | O[C@@H](CNC1CCC1)c1ccc(F)c2[nH]ncc12 [I-137] | < 10 | 70 to 90 | – | < 10
5 | 50 to 70 | Cc1ncccc1[C@@H](O)CNC1CC(C)(C)C1 [I-182] | > 1000 | < 50 | – | > 1000
6 | – | CC(C)CNC[C@H](O)c1cccc2[nH]ncc12 [I-133] | 10 to 100 | 70 to 90 | > 90 | < 10
7 | 70 to 90 | CC(C)CNC[C@H](O)c1cccc2[nH]nc(Cl)c12 [I-99] | 100 to 1000 | 70 to 90 | – | 10 to 100
8 | – | C[C@H](NC[C@H](O)c1cc(C#N)cc2[nH]ncc12)C(C)(C)C [I-5] | > 1000 | 50 to 70 | 70 to 90 | 100 to 1000
9 | 70 to 90 | Cc1n[nH]c2cccc([C@@H](O)CNC(C)C)c12 [I-170] | 100 to 1000 | 70 to 90 | – | 10 to 100
10 | – | CC(C)(C)NC[C@H](O)c1cc(OC(F)F)cc2[nH]ncc12 [I-106] | 100 to 1000 | 70 to 90 | 50 to 70 | 10 to 100
11 | – | CCC(C)(C)NC[C@H](O)c1cc(C#N)cc2[nH]ncc12 [I-52] | 100 to 1000 | 70 to 90 | > 90 | 10 to 100
12 | > 90 | CC(C)C(C)(C)NC[C@H](O)c1cc(F)cc2[nH]ncc12 [I-32] | 10 to 100 | > 90 | – | < 10
13 | > 90 | Cn1c(=O)[nH]c2cccc([C@@H](O)CNC(C)(C)C)c21 [I-93] | > 1000 | 70 to 90 | – | > 1000
14 | > 90 | CC(C)NC[C@H](O)c1cncc2[nH]ncc12 [I-159] | 100 to 1000 | 70 to 90 | – | 100 to 1000
15 | 70 to 90 | Cc1n[nH]c2cccc([C@@H](O)CNC3(C)CC3)c12 [I-169] | 100 to 1000 | 70 to 90 | – | 10 to 100
16 | – | CCC(C)(C)NC[C@H](O)c1ccc(Cl)c2[nH]ncc12 [I-49] | < 10 | 70 to 90 | 70 to 90 | < 10
17 | – | Cc1ncccc1[C@@H](O)CNC(C)C [I-184] | > 1000 | 70 to 90 | 70 to 90 | 100 to 1000
18 | > 90 | CC1(NC[C@H](O)c2cccc3[nH]ncc23)CC1 [I-129] | < 10 | > 90 | – | < 10
19 | > 90 | CC[C@@H](C)NC[C@H](O)c1cc(F)cc2[nH]ncc12 [I-41] | < 10 | > 90 | – | < 10
20 | < 50 | Cc1ccc2cc([C@@H](O)CNC(C)(C)C)ccc2n1 [I-82] | > 1000 | < 50 | – | > 1000

Row | Emax (B2-AR; CHO-K1 cells) [%] | SMILES | EC50 (B1-AR) [nM] | Emax (B1-AR) [%] | Emax (B2-AR; CHO-K1, CHO-K1 cells) [%] | EC50 (B2-AR; CHO-K1 cells) [nM]
21 | – | CCC(C)(C)NC[C@H](O)c1cc(Cl)c(N)nc1C [I-171] | 10 to 100 | 70 to 90 | > 90 | < 10
22 | > 90 | CC(C)(C)CNC[C@H](O)c1cccc2c1C(F)(F)C(=O)N2 [I-63] | > 1000 | < 50 | – | 100 to 1000
23 | > 90 | CC1(NC[C@H](O)c2cccc3[nH]nc(F)c23)CCC1 [I-130] | < 10 | > 90 | – | < 10
24 | – | CCC(C)(CC)NC[C@H](O)c1cc(F)cc2[nH]ncc12 [I-26] | < 10 | > 90 | > 90 | < 10
25 | > 90 | CC1(CNC[C@H](O)c2ccc(F)c3[nH]ncc23)CC1 [I-81] | 10 to 100 | 70 to 90 | – | < 10
26 | > 90 | N#Cc1cc([C@@H](O)CNC2CC2)c2cn[nH]c2c1 [I-153] | 100 to 1000 | 70 to 90 | – | 100 to 1000
27 | – | CC(C)(CO)NC[C@H](O)c1cccc2[nH]nc(F)c12 [I-132] | < 10 | > 90 | > 90 | < 10
28 | – | C[C@H](NC[C@H](O)c1ccc(Cl)c2[nH]ncc12)C(C)(C)C [I-3] | 100 to 1000 | 50 to 70 | 70 to 90 | < 10
29 | – | C[C@@H](NC[C@H](O)c1cccc2[nH]ncc12)C1CC1 [I-13] | < 10 | > 90 | > 90 | < 10
30 | – | O[C@@H](CNC1CCC1)c1cccc2[nH]ncc12 [I-127] | < 10 | > 90 | > 90 | < 10
31 | > 90 | O[C@@H](CNC1CCC1)c1cncc2[nH]ncc12 [I-158] | 100 to 1000 | > 90 | – | 100 to 1000
32 | 70 to 90 | CC(C)(C)CNC[C@H](O)c1ccc(F)c2[nH]ncc12 [I-87] | 100 to 1000 | 50 to 70 | – | 10 to 100
33 | – | CC(C)(C)NC[C@@H](O)c1cncc2[nH]ncc12 [I-66] | > 1000 | 70 to 90 | > 90 | 100 to 1000
34 | – | CC(C)[C@H](C)NC[C@H](O)c1ccc(F)c2[nH]ncc12 [I-36] | < 10 | 70 to 90 | > 90 | < 10
35 | – | Cc1n[nH]c2cccc([C@@H](O)CNC(C)(C)CO)c12 [I-173] | 100 to 1000 | 70 to 90 | 70 to 90 | 100 to 1000
36 | – | Cc1ccnc2ccc([C@@H](O)CNC(C)(C)C)cc12 [I-72] | 100 to 1000 | 50 to 70 | < 50 | 10 to 100
37 | – | CCC(CC)NC[C@H](O)c1cccc2[nH]ncc12 [I-43] | 10 to 100 | > 90 | > 90 | < 10
38 | 50 to 70 | CNc1ncc([C@@H](O)CNC(C)(C)C)cn1 [I-70] | 100 to 1000 | 70 to 90 | – | 10 to 100
39 | > 90 | CC(C)[C@H](C)NC[C@H](O)c1cccc2[nH]ncc12 [I-40] | 10 to 100 | 70 to 90 | – | < 10
40 | – | O[C@@H](CNC1CCC1)c1cccc2[nH]cc(F)c12 [I-113] | < 10 | > 90 | > 90 | 10 to 100

Row | Emax (B2-AR; CHO-K1 cells) [%] | SMILES | EC50 (B1-AR) [nM] | Emax (B1-AR) [%] | Emax (B2-AR; CHO-K1, CHO-K1 cells) [%] | EC50 (B2-AR; CHO-K1 cells) [nM]
41 | – | CC(C)(C)C(C)(C)NC[C@H](O)c1cc(C#N)cc2[nH]ncc12 [I-4] | > 1000 | < 50 | > 90 | 100 to 1000
42 | < 50 | Cc1nc(N)c(Cl)cc1[C@@H](CO)NC1CC(F)(F)C1 [I-186] | > 1000 | < 50 | – | > 1000
43 | 70 to 90 | CCC(C)(C)NC[C@H](O)c1ccc(F)c2[nH]ncc12 [I-50] | < 10 | 70 to 90 | – | < 10
44 | 70 to 90 | Cc1n[nH]c2cccc([C@@H](O)CNC3(C)CCC3)c12 [I-168] | 10 to 100 | 70 to 90 | – | < 10
45 | – | C[C@@H](NC[C@H](O)c1cccc2[nH]ncc12)C(C)(C)C [I-9] | 10 to 100 | > 90 | > 90 | < 10
46 | – | CCC(C)(C)NC[C@H](O)c1cccnc1C [I-165] | 100 to 1000 | 70 to 90 | 70 to 90 | 100 to 1000
47 | 70 to 90 | CC(C)(C)NC[C@H](O)c1cccc2[nH]c(=O)[nH]c12 [I-94] | 100 to 1000 | 70 to 90 | – | 100 to 1000
48 | > 90 | O[C@@H](CNCC1CC1)c1cccc2[nH]ncc12 [I-76] | < 10 | 70 to 90 | – | < 10
49 | – | Cc1ncccc1[C@@H](O)CNC1(C)CCC1 [I-177] | > 1000 | 70 to 90 | > 90 | 10 to 100
50 | 70 to 90 | Cn1ccc(CNC[C@H](O)c2ccc(F)c3[nH]ncc23)n1 [I-65] | 100 to 1000 | 50 to 70 | – | 100 to 1000
51 | – | Cc1ncccc1[C@@H](O)CNC(C)(C)CO [I-176] | > 1000 | 50 to 70 | 70 to 90 | 100 to 1000
52 | – | CC1(NC[C@H](O)c2cccc3[nH]cc(F)c23)CCC1 [I-110] | < 10 | > 90 | > 90 | < 10
53 | > 90 | CC(C)(C)C(C)(C)NC[C@H](O)c1ccc(F)c2[nH]ncc12 [I-8] | > 1000 | 70 to 90 | – | < 10
54 | > 90 | CC(C)C(C)(C)NC[C@H](O)c1ccc(F)c2[nH]ncc12 [I-22] | 10 to 100 | > 90 | – | < 10
55 | > 90 | CC(C)C(C)(C)NC[C@H](O)c1cccc2[nH]nc(F)c12 [I-25] | < 10 | > 90 | – | < 10
56 | – | CC1(NC[C@H](O)c2ccc(Cl)c3[nH]ncc23)CCC1 [I-118] | < 10 | 70 to 90 | 70 to 90 | < 10
57 | – | CC1(NC[C@H](O)c2cc(C#N)cc3[nH]ncc23)CCC1 [I-157] | 100 to 1000 | 70 to 90 | > 90 | 10 to 100
58 | – | Cc1cc([C@@H](O)CNC(C)(C)C)c2cn[nH]c2n1 [I-67] | 10 to 100 | > 90 | > 90 | < 10
59 | – | CC(C)(C)NC[C@H](O)c1cc(F)cc2[nH]cnc12 [I-131] | 10 to 100 | > 90 | 70 to 90 | 10 to 100
